Experimental data taken from patent US20080171788A1, “Medicament For Irritable Bowel Syndrome” (priority 2005, published 2008).
“Also recorded” adds a separate entry of the source.

Tests used:
male Wister rats = assay: Rat restraint stress-induced defecation model; format: in vivo; details: for evacuation suppressing action: 10 mg/kg p.o., used independently, 10 mg/kg; for number of excreted stools, comparison with the non-administration group: each of the 1, 3 and 10 mg/kg administration groups, N=10
Experimental: IBS-treating effect of the medicine of the invention was evaluated using a test method in which the amount of evacuations is measured by applying a restriction stress to rats (cf. J. Pharmacol. Exp. Ther. (1992) 261, 297-303). […] Each drug to be tested was administered to male Wister rats (body weight 250 to 320 g, 10 animals for each group), and a restraint stress was loaded 30 minutes thereafter. A restraint stress cage (KN-468, 265 mm in width×95 mm in length×200 mm in height, mfd. by Natsume Seisakusho, Tokyo) was used for the restraint stress loading, and the number of excreted stool was counted 1 hour after the stress loading. […] The control means the number of stools at the time of no stress loading, namely the reference value.

α1 receptor = assay: Affinity for other receptors: α1; format: binding
5-HT2B receptor = 5-HT2B receptor (Homo sapiens, UniProt P41595); details: in comparison with 5-HT1A, 5-HT1B, 5-HT2A, 5-HT2C, 5-HT3, 5-HT6, 5-HT7, α1, M1 and D2 receptors; cited from earlier work
Chain of 5-HT2B receptor (P41595 whole entry): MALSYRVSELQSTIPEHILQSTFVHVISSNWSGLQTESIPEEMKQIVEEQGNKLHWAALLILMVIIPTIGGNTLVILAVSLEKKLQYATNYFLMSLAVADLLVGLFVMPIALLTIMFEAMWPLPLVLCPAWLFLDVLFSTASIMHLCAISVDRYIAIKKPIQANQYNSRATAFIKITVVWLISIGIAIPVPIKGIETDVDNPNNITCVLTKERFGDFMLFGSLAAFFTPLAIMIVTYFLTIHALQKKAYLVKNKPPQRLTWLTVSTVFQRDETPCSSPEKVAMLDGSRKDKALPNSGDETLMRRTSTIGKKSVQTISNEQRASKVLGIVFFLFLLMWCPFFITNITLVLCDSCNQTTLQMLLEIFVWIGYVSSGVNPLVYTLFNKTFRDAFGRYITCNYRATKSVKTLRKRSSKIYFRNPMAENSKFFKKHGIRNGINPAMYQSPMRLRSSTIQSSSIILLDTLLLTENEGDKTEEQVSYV

Row | SMILES | evacuation suppressing action (male Wister rats) | number of excreted stools, comparison with the non-administration group (male Wister rats) | other results
1 | CC1CCN(CC[C@H]2CCCN2S(=O)(=O)c2cccc(O)c2)CC1 [SB-269970, (R)-3-(2-(2-(4-methylpiperidine-1-yl)ethyl)pyrrolidine-1-sulfonyl)phenol] | did not show the evacuation suppressing action; also recorded: do not show the reaction | Significant difference was not found | 
2 | Cl.NC(N)=NC(=O)c1ccc2c(c1)C1(CCCO1)c1ccccc1-2 (single isomer, unassigned) [Production Example 60b] |  |  | evacuation suppression action (male Wister rats; 3 mg/kg (p.o.)): suppression action similar to the level of Production Example 3
3 | Cl.NC(N)=NC(=O)c1ccc2c(c1)C(O)c1ccccc1-2 (centres unmarked) [Production Example 3, N-(diaminomethylene)-9-hydroxy-9H-fluorene-2-carboxamide hydrochloride] |  |  | IC50 (α1 receptor): ≥ 1 µM; evacuation suppression action (male Wister rats; 3 mg/kg intraperitoneally (i.p.)): significant suppression action
4 | CC(C)c1cc(-c2ccc(F)c3ccccc23)nc(N)n1 [RS-127445, 2-amino-4-(4-fluoronaphtho-1-yl)-6-isopropylpyrimidine] | did not show the evacuation suppressing action; also recorded: do not show the reaction | Significant difference was not found | selectivity for 5-HT2B receptor (5-HT2B receptor): ≥ 1,000 times
